According to PMC10108266, “Pharmacokinetic characteristics of golidocitinib, a highly selective JAK1 inhibitor, in healthy adult participants” (Frontiers in Immunology, 2023):

Experiments:
[1] = Safety (TEAEs), JACKPOT2 SAD cohorts; format: in vivo, human; settings: n = 4
From the text: (§1) Safety assessments included monitoring of adverse events/serious adverse events, clinical safety laboratory tests (clinical chemistry, hematology, coagulation, and urinalysis tests), 12-lead ECG, vital signs (blood pressure, pulse rate, and respiratory rate), and pulmonary function. All adverse events were coded using the Medical Dictionary for Regulatory Activities (MedDRA), version 22.0. The CTCAE 5.0 was used to define the intensity of AEs.

[2] = Safety (TEAEs), JACKPOT2 food effect cohort; format: in vivo, human
From the text: as §1

[3] = One-month toxicology study in rat; settings: in vivo
P-glycoprotein (P-gp) = P-glycoprotein (P-gp) (Homo sapiens, UniProt P08183); assay: In vitro P-gp substrate experiments; format: in vitro ADME; settings: active transport saturable at high concentrations
Sequence of P-glycoprotein (P-gp) (P08183 whole entry): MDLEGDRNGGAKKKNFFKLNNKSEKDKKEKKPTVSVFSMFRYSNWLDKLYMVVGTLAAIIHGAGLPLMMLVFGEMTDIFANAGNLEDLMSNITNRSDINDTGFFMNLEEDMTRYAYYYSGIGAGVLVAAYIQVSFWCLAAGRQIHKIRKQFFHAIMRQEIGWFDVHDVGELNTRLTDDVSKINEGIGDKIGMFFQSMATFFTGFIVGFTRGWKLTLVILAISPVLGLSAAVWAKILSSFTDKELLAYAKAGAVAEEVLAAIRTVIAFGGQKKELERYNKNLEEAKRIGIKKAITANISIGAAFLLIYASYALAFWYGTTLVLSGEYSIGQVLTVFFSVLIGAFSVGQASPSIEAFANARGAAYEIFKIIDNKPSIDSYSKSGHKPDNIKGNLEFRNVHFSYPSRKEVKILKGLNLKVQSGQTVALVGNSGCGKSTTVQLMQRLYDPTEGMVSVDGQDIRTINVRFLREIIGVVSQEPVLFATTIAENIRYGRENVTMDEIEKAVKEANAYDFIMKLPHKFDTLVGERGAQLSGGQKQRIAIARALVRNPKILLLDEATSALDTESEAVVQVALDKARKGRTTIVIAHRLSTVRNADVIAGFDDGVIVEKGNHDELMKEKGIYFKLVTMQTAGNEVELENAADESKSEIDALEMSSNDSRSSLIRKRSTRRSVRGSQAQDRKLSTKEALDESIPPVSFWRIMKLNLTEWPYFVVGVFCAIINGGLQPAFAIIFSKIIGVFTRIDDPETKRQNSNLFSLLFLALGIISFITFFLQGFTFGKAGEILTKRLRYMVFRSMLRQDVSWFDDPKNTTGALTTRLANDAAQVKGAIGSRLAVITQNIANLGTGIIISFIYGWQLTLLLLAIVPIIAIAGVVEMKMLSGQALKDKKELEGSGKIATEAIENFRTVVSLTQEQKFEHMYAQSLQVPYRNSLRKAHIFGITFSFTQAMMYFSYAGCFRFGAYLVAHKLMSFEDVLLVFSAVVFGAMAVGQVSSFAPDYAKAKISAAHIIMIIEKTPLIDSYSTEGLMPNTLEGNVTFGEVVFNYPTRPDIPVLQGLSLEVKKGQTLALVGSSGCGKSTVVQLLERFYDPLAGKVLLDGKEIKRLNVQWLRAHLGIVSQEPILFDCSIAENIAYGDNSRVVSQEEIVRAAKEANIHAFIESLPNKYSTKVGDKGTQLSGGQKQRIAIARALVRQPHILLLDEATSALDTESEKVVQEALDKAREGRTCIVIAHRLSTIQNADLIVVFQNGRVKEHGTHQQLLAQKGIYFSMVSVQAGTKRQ

COc1nn(C)cc1Nc1nccc(-c2c[nH]c3c(NC(=O)[C@@H](C)N4CCN(C)CC4)cccc23)n1 [golidocitinib, (2R)-N-[3-[2-[(3-Methoxy-1-methyl-pyrazol-4-yl)amino]pyrimidin-4-yl]-1H-indol-7-yl]-2-(4-methylpiperazin-1-yl)propenamide]
ALT Increased ([1]; 5 mg single dose): 0 n (%) | AST Increased ([1]; 5 mg single dose): 0 n (%) | Anemia ([1]; 5 mg single dose): 1 (25.0%) n (%) | Blood and Lymphatic System Disorders ([1]; 5 mg single dose): 2 (50.0%) n (%) | Chest Discomfort ([1]; 5 mg single dose): 0 n (%) | Dyspnea ([1]; 5 mg single dose): 0 n (%) | Eosinophilia ([1]; 5 mg single dose): 2 (50.0%) n (%) | General Disorders and Administration Site Conditions ([1]; 5 mg single dose): 0 n (%) | Investigations ([1]; 5 mg single dose): 0 n (%) | N-Terminal Pro-BNP ([1]; 5 mg single dose): 0 n (%) | Nasal Congestion ([1]; 5 mg single dose): 1 (25.0%) n (%) | Neutropenia ([1]; 5 mg single dose): 0 n (%) | Oropharyngeal Pain ([1]; 5 mg single dose): 1 (25.0%) n (%) | Respiratory, Thoracic and Mediastinal Disorders ([1]; 5 mg single dose): 2 (50.0%) n (%) | Subjects with at least one TEAE ([1]; 5 mg single dose): 2 (50.0%) n (%) | Thrombocytosis ([1]; 5 mg single dose): 0 n (%) | ALT Increased ([1]; 20 mg single dose): 0 n (%) | AST Increased ([1]; 20 mg single dose): 0 n (%) | Anemia ([1]; 20 mg single dose): 0 n (%) | Blood and Lymphatic System Disorders ([1]; 20 mg single dose): 2 (50.0%) n (%) | Chest Discomfort ([1]; 20 mg single dose): 0 n (%) | Dyspnea ([1]; 20 mg single dose): 0 n (%) | Eosinophilia ([1]; 20 mg single dose): 0 n (%) | General Disorders and Administration Site Conditions ([1]; 20 mg single dose): 0 n (%) | Investigations ([1]; 20 mg single dose): 0 n (%) | N-Terminal Pro-BNP ([1]; 20 mg single dose): 0 n (%) | Nasal Congestion ([1]; 20 mg single dose): 0 n (%) | Neutropenia ([1]; 20 mg single dose): 1 (25.0%) n (%) | Oropharyngeal Pain ([1]; 20 mg single dose): 0 n (%) | Respiratory, Thoracic and Mediastinal Disorders ([1]; 20 mg single dose): 0 n (%) | Subjects with at least one TEAE ([1]; 20 mg single dose): 2 (50.0%) n (%) | Thrombocytosis ([1]; 20 mg single dose): 1 (25.0%) n (%) | ALT Increased ([1]; 50 mg single dose): 0 n (%) | AST Increased ([1]; 50 mg single dose): 0 n (%) | Anemia ([1]; 50 mg single dose): 0 n (%) | Blood and Lymphatic System Disorders ([1]; 50 mg single dose): 0 n (%) | Chest Discomfort ([1]; 50 mg single dose): 0 n (%) | Dyspnea ([1]; 50 mg single dose): 0 n (%) | Eosinophilia ([1]; 50 mg single dose): 0 n (%) | General Disorders and Administration Site Conditions ([1]; 50 mg single dose): 0 n (%) | Investigations ([1]; 50 mg single dose): 1 (25.0%) n (%) | N-Terminal Pro-BNP ([1]; 50 mg single dose): 1 (25.0%) n (%) | Nasal Congestion ([1]; 50 mg single dose): 0 n (%) | Neutropenia ([1]; 50 mg single dose): 0 n (%) | Oropharyngeal Pain ([1]; 50 mg single dose): 0 n (%) | Respiratory, Thoracic and Mediastinal Disorders ([1]; 50 mg single dose): 0 n (%) | Subjects with at least one TEAE ([1]; 50 mg single dose): 1 (25.0%) n (%) | Thrombocytosis ([1]; 50 mg single dose): 0 n (%) | ALT Increased ([1]; 100 mg single dose): 0 n (%) | AST Increased ([1]; 100 mg single dose): 0 n (%) | Anemia ([1]; 100 mg single dose): 0 n (%) | Blood and Lymphatic System Disorders ([1]; 100 mg single dose): 1 (25.0%) n (%) | Chest Discomfort ([1]; 100 mg single dose): 1 (25.0%) n (%) | Dyspnea ([1]; 100 mg single dose): 0 n (%) | Eosinophilia ([1]; 100 mg single dose): 0 n (%) | General Disorders and Administration Site Conditions ([1]; 100 mg single dose): 1 (25.0%) n (%) | Investigations ([1]; 100 mg single dose): 0 n (%) | N-Terminal Pro-BNP ([1]; 100 mg single dose): 0 n (%) | Nasal Congestion ([1]; 100 mg single dose): 0 n (%) | Neutropenia ([1]; 100 mg single dose): 0 n (%) | Oropharyngeal Pain ([1]; 100 mg single dose): 0 n (%) | Respiratory, Thoracic and Mediastinal Disorders ([1]; 100 mg single dose): 0 n (%) | Subjects with at least one TEAE ([1]; 100 mg single dose): 1 (25.0%) n (%) | Thrombocytosis ([1]; 100 mg single dose): 1 (25.0%) n (%) | ALT Increased ([1]; 150 mg single dose): 0 n (%) | AST Increased ([1]; 150 mg single dose): 0 n (%) | Anemia ([1]; 150 mg single dose): 0 n (%) | Blood and Lymphatic System Disorders ([1]; 150 mg single dose): 0 n (%) | Chest Discomfort ([1]; 150 mg single dose): 0 n (%) | Dyspnea ([1]; 150 mg single dose): 0 n (%) | Eosinophilia ([1]; 150 mg single dose): 0 n (%) | General Disorders and Administration Site Conditions ([1]; 150 mg single dose): 0 n (%) | Investigations ([1]; 150 mg single dose): 0 n (%) | N-Terminal Pro-BNP ([1]; 150 mg single dose): 0 n (%) | Nasal Congestion ([1]; 150 mg single dose): 0 n (%) | Neutropenia ([1]; 150 mg single dose): 0 n (%) | Oropharyngeal Pain ([1]; 150 mg single dose): 0 n (%) | Respiratory, Thoracic and Mediastinal Disorders ([1]; 150 mg single dose): 0 n (%) | Subjects with at least one TEAE ([1]; 150 mg single dose): 0 n (%) | Thrombocytosis ([1]; 150 mg single dose): 0 n (%) | Alanine Aminotransferase Increased ([2]; 50 mg (Fasted), n = 12): 1 (8.3%) n (%) | Anemia ([2]; 50 mg (Fasted), n = 12): 0 n (%) | Aspartate Aminotransferase Increased ([2]; 50 mg (Fasted), n = 12): 0 n (%) | Blood Lactate Dehydrogenase Increased ([2]; 50 mg (Fasted), n = 12): 0 n (%) | Blood and Lymphatic System Disorders ([2]; 50 mg (Fasted), n = 12): 0 n (%) | Cardiac Disorders ([2]; 50 mg (Fasted), n = 12): 1 (8.3%) n (%) | Cough ([2]; 50 mg (Fasted), n = 12): 0 n (%) | Extrasystoles ([2]; 50 mg (Fasted), n = 12): 1 (8.3%) n (%) | Headache ([2]; 50 mg (Fasted), n = 12): 0 n (%) | Investigations ([2]; 50 mg (Fasted), n = 12): 2 (16.7%) n (%) | Lipase Increased ([2]; 50 mg (Fasted), n = 12): 1 (8.3%) n (%) | Nervous System Disorders ([2]; 50 mg (Fasted), n = 12): 0 n (%) | Respiratory, Thoracic and Mediastinal Disorders ([2]; 50 mg (Fasted), n = 12): 0 n (%) | Rhinorrhea ([2]; 50 mg (Fasted), n = 12): 0 n (%) | Subjects with at least one TEAE ([2]; 50 mg (Fasted), n = 12): 3 (25.0%) n (%) | Alanine Aminotransferase Increased ([2]; 50 mg (Fed), n = 11): 3 (27.3%) n (%) | Anemia ([2]; 50 mg (Fed), n = 11): 1 (9.1%) n (%) | Aspartate Aminotransferase Increased ([2]; 50 mg (Fed), n = 11): 2 (18.2%) n (%) | Blood Lactate Dehydrogenase Increased ([2]; 50 mg (Fed), n = 11): 1 (9.1%) n (%) | Blood and Lymphatic System Disorders ([2]; 50 mg (Fed), n = 11): 1 (9.1%) n (%) | Cardiac Disorders ([2]; 50 mg (Fed), n = 11): 0 n (%) | Cough ([2]; 50 mg (Fed), n = 11): 1 (9.1%) n (%) | Extrasystoles ([2]; 50 mg (Fed), n = 11): 0 n (%) | Headache ([2]; 50 mg (Fed), n = 11): 1 (9.1%) n (%) | Investigations ([2]; 50 mg (Fed), n = 11): 4 (36.4%) n (%) | Lipase Increased ([2]; 50 mg (Fed), n = 11): 1 (9.1%) n (%) | Nervous System Disorders ([2]; 50 mg (Fed), n = 11): 1 (9.1%) n (%) | Respiratory, Thoracic and Mediastinal Disorders ([2]; 50 mg (Fed), n = 11): 2 (18.2%) n (%) | Rhinorrhea ([2]; 50 mg (Fed), n = 11): 2 (18.2%) n (%) | Subjects with at least one TEAE ([2]; 50 mg (Fed), n = 11): 7 (63.6%) n (%) | discontinuation due to AE ([2]; 50 mg, fasted state, AE mild, resolved within 2 hours without treatment): one subject was discontinued due to an AE of trigeminy | Human equivalent dose of the NOAEL at 1 month ([3]; body surface area (BSA) conversion, read-out: Human Equivalent Dose (HED) of the NOAEL): 0.972 mg/kg | NOAEL at 1 month ([3]; most sensitive species (rat), one-month toxicology study, read-out: No Observed Adverse Effect Level (NOAEL)): 6 mg/kg | P-gp substrate status (P-glycoprotein (P-gp)): P-glycoprotein (P-gp) substrate
